Experimental findings from patent US20130085260A1, “METHOD FOR THE IDENTIFICATION OF T CELL EPITOPES” (CENTRE H[…] L'UNIVERSITE DE MONTREAL, priority 2010, published 2013) are described below.

Common to all, as to assay type: cell-based, human
For one assay, the system named is NP-CD8 T cell clone. Particulars: EBV-B cells pulsed with synthetic peptide, 1 to 10 μg/mL for 10-mer, 50 μg/mL for longer peptides, 3 hours.
Assay [1] relates to M1^58-66-specific T cells (M1-CD8). Particulars: EBV-B cells pulsed with peptide; negative specificity control.
The next assay concerns M1-CD4 T cell clone. As to the kind of experiment: IFN-γ secretion (ELISA) by M1-CD4 T cell clone co-cultured with peptide-pulsed EBV-B cells. The conditions noted are these: EBV-B cells pulsed with synthetic peptide; HLA-DR-restricted. The procedure:
Antigen-specific bulk T cells from peripheral blood mononuclear cells stimulated with autologous CD4O-B cells electroporated with M1 or NP DNA plasmids were cloned by limiting dilution and cultured as previously described.^8
Synthetic peptides were added to EBV-B cells at a final concentration of 1 to 10 μg/mL for MHC class 110-mer peptides (50 μg/mL for longer peptides) (Table 2) for 3 hours at 37° C. 5% CO2, and then washed once to remove unbound peptides. T-cell clones were washed and cultured for 4 hours in Iscove's complete medium supplemented with 120 IU/ml of interleukin-2 (IL-2). T cell clones' reactivity to MHC-restricted epitopes was tested on the basis of interferon-γ cytokine secretion as described previously.^7

For the sequence AFDERRNKYL [Peptide 2], the “recognition by NP-CD8 T cell clone (IFN-γ production)” value in the assay on NP-CD8 T cell clone is recorded as “more weakly but nevertheless specifically recognized”.
For the sequence IMDQVPFSV [gp100^209-218 peptide], the “recognition by M1^58-66-specific T cells (IFN-γ production)” value in assay [1] was “did not recognize”.
LSAFDERRNKYLEEHPSAG [Peptide 1-6]: the “recognition by NP-CD8 T cell clone (IFN-γ production)” value in the assay with NP-CD8 T cell clone is on record as “well recognized”.
With NGNGDPNNMDKAVKL [Peptide b], in the assay with M1-CD4 T cell clone, the “recognition by M1-CD4 T cell clone (IFN-γ production)” value was “weakly recognized”.
With YRKLKREITF, the “recognition by M1-CD4 T cell clone (IFN-γ production)” value in the assay with M1-CD4 T cell clone is listed as “specifically recognized”.
